Measurements: US12180174B2, “A2-73 crystalline polymorph compositions of matter and methods of use thereof” (ANAVEX LIFE SCIENCES CORP., priority 2018, dated 2024)
Structures can show the parent of a compound that is named as a salt. Where two headings read alike, the source gives them in different places. Values belong to the molecule of their own block, whether it stands above or below them.

How the values were obtained:
[1] = Solid form stability (storage, drying); type: physicochemical
[2] = pH of a saturated solution; type: physicochemical; conditions: saturated solution in water
Solubility at defined pH = type: physicochemical
[3] = Hygroscopicity / gravimetric vapor sorption (GVS); type: physicochemical; conditions: for water uptake (GVS): 90% RH
Description: This is confirmed by gravimetric vapor sorption (GVS) analysis, showing minimal water update (0.3% w/w) up to 90% RH. […] (peak temperature at ca. 91° C.). Upon further heating, Form I appears to sublime, beginning above ca. 120° C. with a weight loss of ca. 99% observed by 212.6° C. ^1H NMR spectra and HPLC-MS results were consistent with the structure of A2-73 freebase. […] FIG. 15 is a […]polarized-light microscopy (PLM) of Freebase Form I. XRPD pattern of Anavex2-73 freebase Form I obtained using copper Ka radiation is shown in FIG. 16.

[4] = Solvent solubility screen; type: physicochemical; conditions: for solubility: read-out: Approx. Solubility
[5] = system: unspecified progressive dementia; assay: Cognitive function of patients with unspecified progressive dementia, enteric coated tablet; type: in vivo, human; conditions: 180 days
Description: A person with unspecified progressive dementia is administered 30 mg of […]2-73 fumarate in an enteric coated tablet every other day for 180 days. Blood levels reveal about 25 mg per day are being administered. […] A person with unspecified progressive dementia is administered 50 mg of […]2-73 freebase in an enteric coated tablet every other day for 180 days. Blood levels reveal about 20 mg per day are being administered.

Alzheimer's disease = assay: Cognitive function of patients with Alzheimer's disease, transdermal patch; type: in vivo, human
Description: A person presents with early signs of Alzheimer's disease. They are administered a pharmaceutical composition via transdermal patch containing 100 mg […]2-73 freebase with a 4 cm2 patch replaced approximately every three days administration for 120 days. Blood levels of about 10 ng/ml are being maintained. […] A person presents with signs of early onset Alzheimer's disease. They are administered via a 9 cm2 transdermal patch containing a pharmaceutical composition containing 200 mg […]2-73 freebase with the patch replaced weekly for 180 days. Blood levels of about 12 ng/ml are being maintained.

[6] = Blood levels in patients on extended release dosage forms; type: in vivo, human; conditions: person
Description: A person presents with early signs of Alzheimer's disease. They are administered a pharmaceutical composition via transdermal patch containing 100 mg ANAVEX2-73 freebase with a 4 cm2 patch replaced approximately every three days administration for 120 days. Blood levels of about 10 ng/ml are being maintained.
A person presents with signs of early onset Alzheimer's disease. They are administered via a 9 cm2 transdermal patch containing a pharmaceutical composition containing 200 mg ANAVEX2-73 freebase with the patch replaced weekly for 180 days. Blood levels of about 12 ng/ml are being maintained.
A person with unspecified progressive dementia is administered 30 mg of ANAVEX2-73 fumarate in an enteric coated tablet every other day for 180 days. Blood levels reveal about 25 mg per day are being administered.
A person with unspecified progressive dementia is administered 50 mg of ANAVEX2-73 freebase in an enteric coated tablet every other day for 180 days. Blood levels reveal about 20 mg per day are being administered.

HeLa cells = assay: LC3-II autophagic flux, Western blot with Bafilomycin A1; type: cell-based, human; conditions: 1 μM, BafiA1 2 μM, vs control
Description: To study the effect of ANAVEX2-73 on autophagy, human HeLa cells were treated with the compound and autophagic activity was analyzed by investigating the flux of LC3-II. LC3-II is the lipidated form of LC3, which (partially) stays attached to autophagosomes and thus, gets degraded by lysosomes. Therefore, the quantification of the LC3-II flux, using Bafilomycin AI (BafiAi; 2 μM) for inhibition of lysosomal degradation, directly corresponds to cellular autophagic activity. […] There is a concentration-dependent and significant increase in the autophagic-flux following application of ANAVEX2-73: an increase of over 2-fold at 10 μM and over 1.5-fold at 1 μM ANAVEX2-73 (FIG. 35A). As standard positive control to provoke the induction of autophagy, HeLa cells were incubated with EBSS, which resembles nutrient deprivation as autophagy stimulus.
Cell culture and microscopy. HeLa and HEK293A cells were cultured in DMEM (Invitrogen, Carlsbad, CA, USA, 41965062) supplemented with active FBS (Life Technologies GmbH, Carlsbad, CA, USA, 10270106), 1×ABAM (Invitrogen, 15240-062) and 1 mM sodium pyruvate (Invitrogen, 1136-088). After medium change, the cells were treated for 2 h with 10, 1, and 0.1 μM ANAVEX2-73 and PRE-084 (Tocris, Bristol, UK, 0589), respectively; ANAVEX2-73 was provided by ANAVEX Life Sciences Corp, New York, NY, USA. Afterwards Bafilomycin A1 (Bafi.Ai; 2 μM) (Toronto Research Chemicals, North York, ON, Canada, B110000) or DMSO was added for a further 2 h and the cells were eventually harvested. Western blot analyses were performed as described previously. Briefly, cells were subjected to SDS-PAGE using precast NuPAGE 4%-12% Bis-Tris gels (Invitrogen, NP0322). Proteins were detected by chemiluminescence using the Amersham Imager 600 (GE). Confocal fluorescence microscopical analyses of HEK293A cells stably expressing GFP-LC3B were performed with the laser scanning microscope LSM 710 (Zeiss, Oberkochen).

ULK1 = ULK1 serine 555 phosphorylation, Western blot; type: cell-based, human; conditions: 1 μM; HeLa cells
Text: Activation of the serine/threonine protein kinase ULK1 (unc-51-like kinase 1) via phosphorylation at serine 555 indicates stimulation of the canonical autophagy pathway. […] It has to be mentioned that this activating ULK1 phosphorylation can be inhibited by mTOR as well as stimulated via AMPK kinase. Both are basal physiological sensors of nutritional conditions and key signal transducers of canonical autophagy stimulation. ULK1 is in fact the signal mediating the induction of the formation of the phagophore during the autophagy process and, therefore, a central promoter of autophagy. ULK1 itself functions in a complex with at least three protein partners: FI P200 (focal adhesion kinase family interacting protein of 200 kDa), ATG (autophagy-related protein) 13 (ATG13), and ATG101.
Cell culture and microscopy. HeLa and HEK293A cells were cultured in DMEM (Invitrogen, Carlsbad, CA, USA, 41965062) supplemented with active FBS (Life Technologies GmbH, Carlsbad, CA, USA, 10270106), 1×ABAM (Invitrogen, 15240-062) and 1 mM sodium pyruvate (Invitrogen, 1136-088). […] Proteins were detected by chemiluminescence using the Amersham Imager 600 (GE). Confocal fluorescence microscopical analyses of HEK293A cells stably expressing GFP-LC3B were performed with the laser scanning microscope LSM 710 (Zeiss, Oberkochen).

form stability on drying ([1]; dried after isolation wet with water): once dried, it converts to Form I
SMILES: CN(C)CC1CCOC1(c1ccccc1)c1ccccc1.Cl (racemic) [Form VIII, tetrahydro-N,N-dimethyl-2,2-diphenyl-3-furanmethanamine hydrochloride]

pH of a saturated solution [2]: 2.66
solubility (Solubility at defined pH; pH 1.2, simulated gastric fluid, pH 1.2, read-out: solubility): ~47.2 mg/mL
solubility (Solubility at defined pH; pH 4.5): ~33.1 mg/mL
hygroscopicity [3]: hygroscopic
SMILES: CN(C)CC1CCOC1(c1ccccc1)c1ccccc1 (centres unmarked) [A2-73 dihydrogen phosphate Form I, tetrahydro-N,N-dimethyl-2,2-diphenyl-3-furanmethanamine]

solubility ([4]; 1,4-dioxane, organic solvent or mixture): ≥ 200 mg/mL
solubility ([4]; 1-butanol, organic solvent or mixture): ≥ 200 mg/mL
solubility ([4]; 2-butanone, organic solvent or mixture): ≥ 200 mg/mL
solubility ([4]; N,N′-dimethylformamide, organic solvent or mixture): ≥ 200 mg/mL
solubility ([4]; acetone, organic solvent or mixture): ≥ 200 mg/mL
solubility ([4]; cyclohexane, organic solvent or mixture): ≥ 200 mg/mL
solubility ([4]; dimethyl sulfoxide, organic solvent or mixture): ≥ 200 mg/mL
solubility ([4]; heptane, organic solvent or mixture): ≥ 200 mg/mL
solubility ([4]; methyl acetate, organic solvent or mixture): ≥ 200 mg/mL
solubility ([4]; methyl isobutyl ketone, organic solvent or mixture): ≥ 200 mg/mL
solubility ([4]; nitromethane, organic solvent or mixture): ≥ 200 mg/mL
solubility ([4]; tetrahydrofuran, organic solvent or mixture): ≥ 200 mg/mL
solubility ([4]; water): < 5 mg/mL
water solubility (Solubility at defined pH; water): not highly water soluble
hygroscopicity [3]: non-hygroscopic
water uptake (GVS) [3]: 0.3 % w/w
XRPD analysis post-GVS ([3]; post-GVS): no change in form
amount administered per day as revealed by blood levels ([6]; 50 mg enteric coated tablet every other day, 180 days): about 20 mg per day
blood levels maintained ([6]; transdermal patch 100 mg, 4 cm2, replaced approximately every three days, 120 days): about 10 ng/ml
blood levels maintained ([6]; transdermal patch 200 mg, 9 cm2, replaced weekly, 180 days): about 12 ng/ml
SMILES: CN(C)CC1CCOC1(c1ccccc1)c1ccccc1 (centres unmarked) [A2-73 freebase Form I, tetrahydro-N,N-dimethyl-2,2-diphenyl-3-furanmethanamine]
solubility in the solvents tested (summary) ([4]; all solvents of Table 10): high solubility in all solvents tested, except water
cognitive function ([5]; 50 mg enteric coated tablet every other day): stabilizes during that period with no additional loss detected
cognitive function (Alzheimer's disease; early onset Alzheimer's disease, patch 200 mg, 9 cm2, weekly, 180 days): stabilizes during that period with no additional loss detected
cognitive function (Alzheimer's disease; early signs of Alzheimer's disease, patch 100 mg, 4 cm2, every three days, 120 days): stabilizes during that period, with no additional loss detected

pH of a saturated solution [2]: 3.61
solubility at GI pH (Solubility at defined pH; GI pH): lower solubility
solubility at gastric pH (Solubility at defined pH; gastric pH (generally about 1.5 to 3.5)): moderate solubility
solubility (Solubility at defined pH; pH 1.2): ca. 43.0 mg/mL
solubility (Solubility at defined pH; pH 4.5): ~4.1 mg/mL
solubility (Solubility at defined pH; pH 6.8, aqueous buffer, pH 6.8, read-out: solubility): ~12.6 mg/mL
hygroscopicity [3]: slightly hygroscopic
water uptake (GVS) [3]: ca. 0.9 % w/w
SMILES: CN(C)CC1CCOC1(c1ccccc1)c1ccccc1 (centres unmarked) [A2-73 hydrogen fumarate Form III, tetrahydro-N,N-dimethyl-2,2-diphenyl-3-furanmethanamine]

SMILES: CN(C)CC1CCOC1(c1ccccc1)c1ccccc1 (centres unmarked) [A2-73 sulfate Form II, tetrahydro-N,N-dimethyl-2,2-diphenyl-3-furanmethanamine]
form stability on storage ([1]; post-storage at 40° C./75% RH): metastable, converting to A2-73 sulfate Form I

amount administered per day as revealed by blood levels ([6]; 30 mg enteric coated tablet every other day, 180 days): about 25 mg per day
SMILES: CN(C)CC1CCOC1(c1ccccc1)c1ccccc1 (centres unmarked) [ANAVEX2-73 fumarate, tetrahydro-N,N-dimethyl-2,2-diphenyl-3-furanmethanamine]
cognitive function ([5]; 30 mg enteric coated tablet every other day): stabilizes during that period with no additional loss detected

hygroscopicity ([3]; hydrochloride): slightly hygroscopic
SMILES: CN(C)CC1CCOC1(c1ccccc1)c1ccccc1.Cl (centres unmarked) [Form II, tetrahydro-N,N-dimethyl-2,2-diphenyl-3-furanmethanamine hydrochloride]

hygroscopicity ([3]; hydrochloride): slightly-hygroscopic
SMILES: CN(C)CC1CCOC1(c1ccccc1)c1ccccc1.Cl (centres unmarked) [Form III, tetrahydro-N,N-dimethyl-2,2-diphenyl-3-furanmethanamine hydrochloride]

SMILES: O=C(OCCN1CCOCC1)C1(c2ccccc2)CCCCC1 [PRE-084, 2-morpholin-4-ylethyl 1-phenylcyclohexane-1-carboxylate, reference compound]
increase in autophagic flux (LC3-II) (HeLa cells): over 1.5 fold
ULK1 serine 555 phosphorylation (ULK1): up to 1.5 fold
